Reference: patent US20230126893A1, “[(1,4,5-TRISUBSTITUTED-1H-PYRAZOL-3-YL)SULFANYL]ACETIC ACID DERIVATIVES, SALTS THEREOF, AND USE THEREOF AS ACTIVE HERBICIDAL INGREDIENTS” (BAYER AKTIENGESELLSCHAFT, priority 2020, published 2023)

Key:
Type in all cases: in vivo
[1] = test system: Poa annua; assay: Pre-emergence herbicidal effect against POAAN; details: 1280 g/ha, visual score after 3 weeks, 100% = plants have died, 0% = like control plants
Text: (§1) 1. Pre-emergence herbicidal effect and crop plant compatibility Seeds of monocotyledonous and dicotyledonous weed plants and crop plants are laid out in sandy loam soil in wood-fibre pots and covered with soil. The compounds of the invention, formulated in the form of wettable powders (WP) or as emulsion concentrates (EC), are then applied to the surface of the covering soil as aqueous suspension or emulsion at a water application rate equating to 600 to 800 L/ha with addition of 0.2% wetting agent. After the treatment, the pots are placed in a greenhouse and kept under good growth conditions for the trial plants. The damage to the test plants is scored visually after a test period of 3 weeks by comparison with untreated controls (herbicidal activity in percent (%): 100% activity=the plants have died, 0% activity=like control plants). [table]

[2] = test system: Digitaria sanguinalis; assay: Pre-emergence herbicidal effect against DIGSA; details: 1280 g/ha, visual score after 3 weeks, 100% = plants have died, 0% = like control plants
Text: as §1

[3] = test system: Amaranthus retroflexus; assay: Pre-emergence herbicidal effect against AMARE; details: 1280 g/ha, visual score after 3 weeks, 100% = plants have died, 0% = like control plants
Text: as §1

[4] = test system: Veronica persica; assay: Post-emergence herbicidal effect against VERPE; details: 1280 g/ha, visual assessment about 3 weeks after treatment, 100% = plants have died, 0% = like control plants
Protocol: (§2) [table] 2. Post-emergence herbicidal effect and crop plant compatibility Seeds of monocotyledonous and dicotyledonous weed and crop plants are laid out in sandy loam soil in wood-fibre pots, covered with soil and cultivated in a greenhouse under good growth conditions. 2 to 3 weeks after sowing, the test plants are treated at the one-leaf stage. The compounds of the invention, formulated in the form of wettable powders (WP) or as emulsion concentrates (EC), are then sprayed onto the green parts of the plants as aqueous suspension or emulsion at a water application rate equating to 600 to 800 l/ha with addition of 0.2% wetting agent. After the test plants have been left to stand in the greenhouse under optimal growth conditions for about 3 weeks, the action of the preparations is assessed visually in comparison to untreated controls (herbicidal action in percent (%): 100% activity=the plants have died, 0% activity=like control plants).

[5] = test system: Tripleurospermum inodorum; assay: Pre-emergence herbicidal effect against MATIN; details: 1280 g/ha, visual score after 3 weeks, 100% = plants have died, 0% = like control plants
Text: as §1

[6] = test system: Veronica persica; assay: Pre-emergence herbicidal effect against VERPE; details: 1280 g/ha, visual score after 3 weeks, 100% = plants have died, 0% = like control plants
Text: as §1

[7] = test system: Poa annua; assay: Post-emergence herbicidal effect against POAAN; details: 1280 g/ha, visual assessment about 3 weeks after treatment, 100% = plants have died, 0% = like control plants
Protocol: as §2

[8] = test system: Stellaria media; assay: Pre-emergence herbicidal effect against STEME; details: 1280 g/ha, visual score after 3 weeks, 100% = plants have died, 0% = like control plants
Text: as §1

[9] = test system: Tripleurospermum inodorum; assay: Post-emergence herbicidal effect against MATIN; details: 1280 g/ha, visual assessment about 3 weeks after treatment, 100% = plants have died, 0% = like control plants
Protocol: as §2

[10] = test system: Echinochloa crus-galli; assay: Pre-emergence herbicidal effect against ECHCG; details: 1280 g/ha, visual score after 3 weeks, 100% = plants have died, 0% = like control plants
Text: as §1

[11] = test system: Setaria viridis; assay: Pre-emergence herbicidal effect against SETVI; details: 1280 g/ha, visual score after 3 weeks, 100% = plants have died, 0% = like control plants
Text: as §1

[12] = test system: Stellaria media; assay: Post-emergence herbicidal effect against STEME; details: 1280 g/ha, visual assessment about 3 weeks after treatment, 100% = plants have died, 0% = like control plants
Protocol: as §2

[13] = test system: Alopecurus myosuroides; assay: Pre-emergence herbicidal effect against ALOMY; details: 1280 g/ha, visual score after 3 weeks, 100% = plants have died, 0% = like control plants
Text: as §1

[14] = test system: Lolium rigidum; assay: Pre-emergence herbicidal effect against LOLRI; details: 1280 g/ha, visual score after 3 weeks, 100% = plants have died, 0% = like control plants
Text: as §1

[15] = test system: Echinochloa crus-galli; assay: Post-emergence herbicidal effect against ECHCG; details: 1280 g/ha, visual score after about 3 weeks, 100% = plants have died, 0% = like control plants
Protocol: as §2

[16] = test system: Setaria viridis; assay: Post-emergence herbicidal effect against SETVI; details: 1280 g/ha, visual assessment about 3 weeks after treatment, 100% = plants have died, 0% = like control plants
Protocol: as §2

[17] = test system: Alopecurus myosuroides; assay: Post-emergence herbicidal effect against ALOMY; details: 1280 g/ha, visual score after about 3 weeks, 100% = plants have died, 0% = like control plants
Protocol: as §2

[18] = test system: Digitaria sanguinalis; assay: Post-emergence herbicidal effect against DIGSA; details: 1280 g/ha, visual score after about 3 weeks, 100% = plants have died, 0% = like control plants
Protocol: as §2

[19] = test system: Bassia scoparia; assay: Post-emergence herbicidal effect against KCHSC; details: 1280 g/ha, visual assessment about 3 weeks after treatment, 100% = plants have died, 0% = like control plants
Protocol: as §2

[20] = test system: Amaranthus retroflexus; assay: Post-emergence herbicidal effect against AMARE; details: 1280 g/ha, visual assessment about 3 weeks after treatment, 100% = plants have died, 0% = like control plants
Protocol: as §2

[21] = test system: Abutylon threophrasti; assay: Post-emergence herbicidal effect against ABUTH; details: 1280 g/ha, visual assessment about 3 weeks after treatment, 100% = plants have died, 0% = like control plants
Protocol: as §2

| Compound | Pre-emergence action against POAAN [1] [%] | Pre-emergence action against DIGSA [2] [%] | Pre-emergence action against AMARE [3] [%] | Post-emergence action against VERPE [4] [%] | Pre-emergence action against MATIN [5] [%] | Pre-emergence action against VERPE [6] [%] | Post-emergence action against POAAN [7] [%] | Pre-emergence action against STEME [8] [%] | Post-emergence action against MATIN [9] [%] | Pre-emergence action against ECHCG [10] [%] | Pre-emergence action against SETVI [11] [%] | Post-emergence action against STEME [12] [%] | Pre-emergence action against ALOMY [13] [%] | Pre-emergence action against LOLRI [14] [%] | Post-emergence action against ECHCG [15] [%] | Post-emergence action against SETVI [16] [%] | Post-emergence action against ALOMY [17] [%] | Post-emergence action against DIGSA [18] [%] | Post-emergence action against KCHSC [19] [%] | Post-emergence action against ABUTH [21] [%] | further results |
| --- | --- | --- | --- | --- | --- | --- | --- | --- | --- | --- | --- | --- | --- | --- | --- | --- | --- | --- | --- | --- | --- |
| O=C(O)CSc1nn(-c2ccccc2)c(-c2cncnc2)c1Br [III-002] | 100 | 100 | 100 | 100 | 100 | 100 | 100 | 100 | 90 | 100 | 100 | 90 |  |  |  |  |  |  |  |  |  |
| CCOC(=O)CSc1nn(-c2cc(F)ccc2F)c(-c2ccc(F)cc2)c1Br [Example I-020] | 100 | 100 |  | 90 | 100 | 100 | 90 | 100 | 90 |  | 100 | 90 | 90 | 100 | 90 | 90 | 100 | 90 | 90 |  |  |
| CCOC(=O)CSc1nn(-c2cccc(F)c2F)c(-c2ccccc2)c1Br [Example I-004] | 100 | 100 | 100 | 90 | 100 | 100 | 100 | 100 | 100 | 90 | 100 | 90 | 90 | 100 |  |  | 100 |  |  |  | Post-emergence action against AMARE [20]: 90% |
| Cc1cnsc1-c1c(Br)c(SCC(=O)O)nn1-c1ccccc1F [Example V-002] | 100 |  | 100 |  | 100 |  |  |  |  |  | 100 |  |  |  |  |  |  |  |  |  |  |
| COC(=O)CNC(=O)CSc1nn(-c2ccccc2F)c(-c2ccc(F)c(F)c2)c1Cl [VII-001] | 100 | 100 |  | 90 | 100 | 100 | 100 | 100 | 90 |  | 100 | 90 | 90 | 100 | 100 | 90 | 100 | 100 | 90 | 90 |  |
| CC(Sc1nn(-c2ccccc2F)c(-c2ccc(F)c(F)c2)c1Br)C(=O)O (stereo not drawn) [Example I-022] | 90 | 100 | 90 | 100 | 90 | 100 | 100 | 100 | 100 | 90 | 100 | 90 | 90 | 100 | 100 |  | 100 | 90 | 90 | 90 |  |
| CCOC(=O)CSc1nn(-c2ccccc2F)c(-c2cnccn2)c1Br [VI-001] | 100 | 90 |  | 90 | 90 |  | 100 | 90 | 100 |  |  |  |  |  |  |  | 90 |  |  | 90 | Post-emergence action against AMARE [20]: 90% |
| O=C(O)CSc1nn(-c2ccccc2F)c(-c2ccc(F)c(F)c2)c1[N+](=O)[O-] [Example I-024] | 100 | 100 |  | 100 | 100 | 100 | 100 | 100 | 100 | 90 | 100 |  | 90 | 100 | 90 | 100 | 100 | 100 | 90 | 90 |  |
| CCOC(=O)CSc1nn(-c2ccccc2F)c(-c2ccc(F)c(F)c2)c1C(F)(F)F [Example I-018] | 100 | 100 |  | 100 | 100 | 100 | 100 | 100 | 90 | 100 | 100 |  | 90 | 100 | 90 | 100 |  | 90 |  | 90 |  |
| CCOC(=O)CSc1nn(-c2ccccc2F)c(-c2cc(Cl)cs2)c1Br [IV-001] | 90 |  | 100 | 90 | 90 | 90 |  | 100 |  |  |  |  |  | 90 |  |  |  |  |  |  | Post-emergence action against AMARE [20]: 90% |
| CCOC(=O)CSc1nn(-c2ccccc2F)c(-c2sncc2C)c1Br [Example V-001] | 90 | 90 | 100 | 90 | 90 |  |  |  |  |  |  |  |  |  |  |  |  |  |  |  | Post-emergence action against AMARE [20]: 100% |
